Data as given in the NIST ThermoML archive (doi:10.1016/j.jct.2019.04.006).

Test: molar heat capacity at constant pressure
Conditions: 101.33 kPa, Crystal, DSC

CSCCC(N)C(=O)O (racemic) [DL-2-amino-4-(methylthio)butanoic acid]
Conditions	molar heat capacity at constant pressure [J/K/mol]
208.72 K	145.39
210.22 K	145.59
211.72 K	146.57
213.72 K	147.97
216.22 K	150.38
218.22 K	152.14
221.72 K	155.91
224.22 K	157.49
226.72 K	159.11
227.22 K	159.42
230.22 K	161.3
233.22 K	162.93
236.22 K	164.63
239.22 K	166.6
243.22 K	168.79
247.22 K	170.83
252.22 K	173.41
256.72 K	176.16
260.72 K	178.94
264.22 K	181.37
268.72 K	184.35
271.22 K	184.84
273.22 K	187.3
276.72 K	190.45
279.72 K	192.56
283.22 K	194.93
287.22 K	196.84
291.72 K	199.53
292.22 K	199.85
293.22 K	200.43
294.22 K	201.59
295.22 K	202.47
297.72 K	205.07
298.15 K	205.16
298.22 K	205.65
298.72 K	205.99
301.72 K	208.47
303.72 K	209.85
305.72 K	211.52
307.72 K	212.85
310.22 K	214.89
314.22 K	218.21
318.22 K	222.26
321.22 K	225.76

O=C(O)c1ccccc1 [benzoic acid]
Conditions	molar heat capacity at constant pressure [J/K/mol]
208.72 K	104.86
210.22 K	105.69
211.72 K	106.52
213.72 K	107.61
216.22 K	108.96
218.22 K	110.02
221.72 K	111.86
224.22 K	113.15
226.72 K	114.43
227.22 K	114.68
230.22 K	116.19
233.22 K	117.68
236.22 K	119.14
239.22 K	120.59
243.22 K	122.5
247.22 K	124.38
252.22 K	126.69
256.72 K	128.74
260.72 K	130.54
264.22 K	132.1
268.72 K	134.09
271.22 K	135.19
273.22 K	136.06
276.72 K	137.59
279.72 K	138.9
283.22 K	140.41
287.22 K	142.15
291.72 K	144.1
292.22 K	144.31
293.22 K	144.75
294.22 K	145.18
295.22 K	145.61
297.72 K	146.7
298.15 K	146.89
298.22 K	146.92
298.72 K	147.13
301.72 K	148.44
303.72 K	149.32
305.72 K	150.19
307.72 K	151.07
310.22 K	152.18
314.22 K	153.96
318.22 K	155.75
321.22 K	157.11
